What all share (type): cell-based, human
Test [1] concerns Adipose-derived stem cells. Nature of the test: Culture in the presence of 5-azacytidine. The following applies: exposure to 5-azacytidine. How it is done: Adipose-derived stem cells obtained in accordance with Example 1 were cultured in the presence of 5-azacytidine.
The subject of the next test is Alkaline phosphatase. Kind of test: Alkaline phosphatase enzyme activity, spectrophotometric. As to conditions: 2 to 3 weeks.
A further test deals with matrix mineralization. Kind of test: Total calcium, spectrophotometric. How it is done:
Cells were washed with PBS (no Ca^2+, no Mg^2+) and harvested in 0.1N HCl. Cells were extracted for a minimum of 4 hours at 4° C. and centrifuged at 1000×g for 5 minutes. Total calcium in the supernatant was determined using Sigma kit #587 and measured at A575 nm. The assay was calibrated using calcium standard solutions. Total protein was determined and the samples were expressed as mM Ca/ug protein. […] Values are expressed as the mean±SD.
Bone formation in vivo is a complex process involving morphogens, hormones and growth factors. Recent work has questioned the efficacy of synthetic glucocorticoids, like dexamethasone (Dex), in mediating osteogenesis. Glucocorticoids appear to inhibit the action of several osteogenic genes including osteocalcin, CBFA-1 and CNI (as reviewed in Cooper, et al., 1999 J. Endocrinol. 163:159-164). It is well established that bone tissue and osteoprogenitor cells are targets of vitamin D action (Chen, et al., 1983 J. Biol. Chem. 258:4350; Chen, et al., 1979 J. Biol. Chem. 254:7491; Narbaitz, et al., 1983 Calcif. Tiss. Int. 35:177) and this metabolite stimulates both AP activity and CNI synthesis by human bone cell populations (Beresford, et al., 1986 Endo 119:1776-1785). […] AP activity and Ca^2+ accumulation were measured over time using commercial kits and normalized with respect to protein and/or time.

Another test concerns PLA cells. Nature of the test: Micromass culture chondrogenic nodule formation. The following applies: induction medium containing TGFβ1 alone. How it is done:
Chondrogenic differentiation was induced using a micromass culture protocol as previously described with some modifications (Ahrens, P B, et al., 1977 Dev. Biol. 60:69-82; Denker, A E 1995 Differentiation 59:25-34). Ten microliter drops of the PLA cellular suspension were placed in the center of each well of a 24-well tissue culture plate and on chamber slides. The cells were placed in an incubator at 37° C. at 5% CO2 for two hours to allow cell adherence. The pellets were gently overlaid with control medium and incubated overnight. The medium was replaced by chondrogenic medium [DMEM with 1% FBS supplemented with 10 ng/ml TGF-β1 (R&D Systems, Minneapolis, Minn.), 6.25 μg/ml insulin (Sigma), and 6.25 μg/ml transferrin (Sigma)]. The pellets were induced for six days in chondrogenic medium. At day six and thereafter, 50 μg/ml ascorbic acid-2-phosphate (Sigma) was added to the chondrogenic medium mixture. PLA pellets were harvested at days two, seven, and fourteen after initial induction for analysis. […] HFF cells were cultured as above under micromass and monolayer conditions as a negative control.
In order to assess the relationship of chondrogenic induction to PLA cell, micromass cultures were plated in chondrogenic medium at cell concentrations of 1×10^5, 1×10^6, 2.5×10^6, 5×10^6, 1×10^7, 2×10^7, and 5×10^7 cells per milliliter (cells/ml). […]

Experimental for Alkaline phosphatase: Cells were washed with PBS and harvested into PBS/0.1% Triton X-100 (PBS/TX100). AP enzyme activity was assayed using a commercial AP enzyme kit (Sigma) and measured at an absorbance of 405 nm. Total protein in each sample was measured based on the Bradford method (Bradford 1976 Anal. Biochem. 72:248-254) using a BCA Protein Assay Kit (Pierce, Rockford, Ill.). AP activity was expressed a nmol p-nitrophenol produced/minute/ug protein. The assay was calibrated using standard p-nitrophenol solutions. Differentiated MSC and NHOst cells were assayed as positive controls while non-induced PLA cells were assayed as a negative control. Values are expressed as the mean±SD.

Regarding `Nc1ncn([C@@H]2O[C@H](CO)[C@@H](O)[C@H]2O)c(=O)n1` [5-azacytidine], in test [1], the “myogenic differentiation of adipose-derived stem cells” value is “did not induce myogenic differentiation”. In the case of `C[C@@H]1C[C@H]2[C@@H]3CCC4=CC(=O)C=C[C@]4(C)[C@@]3(F)[C@@H](O)C[C@]2(C)[C@@]1(O)C(=O)CO` [Dex, dexamethasone], the “AP enzyme induction in MSCs” value in the test with Alkaline phosphatase (MSCs) is 54.2 fold. The “AP enzyme induction in PLA cells” value in the test on Alkaline phosphatase (PLA cells) stood at 17.2 fold. In addition, in the test with matrix mineralization, the “overall increase in matrix mineralization in PLA cells” value is listed as 56 fold.

Turning to `C=C1/C(=C\C=C2/CCC[C@]3(C)[C@@H]([C@H](C)CCCC(C)(C)O)CC[C@@H]23)C[C@@H](O)C[C@@H]1O` [VD, 1,25-dihydroxyvitamin D3], the “overall increase in matrix mineralization in PLA cells” value in the test with matrix mineralization stood at 122 fold.

For the compound “TGFβ1: transforming growth factor-beta 1”, in the test with PLA cells, the “nodule formation by PLA cells” value is recorded as “PLA nodules formed”.

(Values after US7470537B2, “Adipose-derived stem cells and lattices” (priority 1999, dated 2008).)
